From PubChem BioAssay (NCI) come the findings set out here.

Among the test systems are HCT-15 colon; M14 melanoma; SF-539 CNS; SK-MEL-5 melanoma; UACC-257 melanoma; UACC-62 melanoma; SK-MEL-2 melanoma; HL-60(TB) leukemia; TK-10 renal; MOLT-4 leukemia; IGROV1 ovarian; KM12 colon; SNB-19 CNS; T-47D breast; MCF7 breast; HS 578T breast.
Holding throughout (test): DTP human tumour cell line panel, 48 h

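1) Cells in 96-well plates. 2) Compound, 48 h, 5 concentrations. 3) Linear interpolation between surrounding doses. 4) Unreached endpoint = highest concentration. Here, GI50 denotes the concentration required for 50% inhibition of growth. TGI is the concentration that stops growth completely.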 A value given as a limit tells only on which side of the number the result lay.

Take `O=C(/C=C/c1ccc(O)c(O)c1)OC1C[C@@](O)(C(=O)O)C[C@@H](O)[C@H]1OC(=O)/C=C/c1ccc(O)c(O)c1` (stereo partly drawn): the total growth inhibition concentration (TGI) with HCT-15 colon, with M14 melanoma, in the assay on SF-539 CNS, in the assay with SK-MEL-5 melanoma, in the assay with UACC-257 melanoma and in the assay with UACC-62 melanoma was greater than 100 µM throughout. Also, the TGI in the assay on SK-MEL-2 melanoma, in the assay on HL-60(TB) leukemia, with TK-10 renal, in the assay on MOLT-4 leukemia, with IGROV1 ovarian and in the assay on KM12 colon was greater than 100 µM each time.

As to `CC(/C=C/C(=O)c1sc(-n2nc(-c3ccccc3)cc2-c2ccccc2)nc1C)=C\c1ccccc1`, the TGI with HCT-15 colon is 57.6 µM; with M14 melanoma, greater than 100 µM; in the assay on SF-539 CNS, greater than 100 µM; in the assay with SK-MEL-5 melanoma, greater than 100 µM; in the assay on UACC-257 melanoma, greater than 100 µM; in the assay with UACC-62 melanoma, greater than 100 µM. In addition, the TGI in the assay on SK-MEL-2 melanoma, in the assay on HL-60(TB) leukemia, in the assay with SNB-19 CNS, in the assay with MOLT-4 leukemia, in the assay on IGROV1 ovarian and in the assay with KM12 colon was greater than 100 µM each time. In addition, the GI50 with M14 melanoma is greater than 100 µM.

On to `N#CC(/C(=N\NC(=O)c1ccncc1)C(=O)Nc1ccc([N+](=O)[O-])cc1[N+](=O)[O-])c1nc(-c2ccc(Br)cc2)cs1` (stereo not drawn), for which the TGI in the assay with HCT-15 colon, with M14 melanoma, in the assay with SF-539 CNS, in the assay with SK-MEL-5 melanoma, with UACC-257 melanoma and with UACC-62 melanoma was greater than 100 µM each time. Further, the TGI in the assay on SK-MEL-2 melanoma, in the assay on HL-60(TB) leukemia, in the assay on SNB-19 CNS, in the assay with TK-10 renal, with MOLT-4 leukemia and with IGROV1 ovarian was greater than 100 µM each time. Also, the TGI in the assay with KM12 colon was greater than 100 µM.

`CCOC(=O)C[C@@H](C)[C@]1(C(=O)OC)CCCC1=O`: the concentration for total growth inhibition (TGI) in the assay with HCT-15 colon, in the assay on M14 melanoma, in the assay on SF-539 CNS, with SK-MEL-5 melanoma, with UACC-257 melanoma and with UACC-62 melanoma was greater than 100 µM in each case. Further, the TGI in the assay on SK-MEL-2 melanoma, in the assay with HL-60(TB) leukemia, in the assay with SNB-19 CNS, in the assay with TK-10 renal, in the assay on MOLT-4 leukemia and in the assay with IGROV1 ovarian was greater than 100 µM each time. In the assay with KM12 colon, this molecule came in with a TGI greater than 100 µM.

`COc1cc(OC)c2ssc3c(OC)cc(OC)c4ssc1c2-c43`: the total growth inhibition concentration (TGI) in the assay with HCT-15 colon, in the assay with M14 melanoma, in the assay with SF-539 CNS, in the assay on SK-MEL-5 melanoma, with UACC-257 melanoma and in the assay on UACC-62 melanoma was greater than 100 µM in each case. The TGI in the assay with SK-MEL-2 melanoma, in the assay on SNB-19 CNS, in the assay on TK-10 renal, in the assay with MOLT-4 leukemia, with IGROV1 ovarian and in the assay with KM12 colon was greater than 100 µM throughout.

With `Cc1ccc2[nH]c3c(C)c4c(c(C)c3c2c1)CN(C)C=C4`, the TGI in the assay on HCT-15 colon stood at 28.2 µM; in the assay on M14 melanoma, 13.6 µM; in the assay with SF-539 CNS, 1.62 µM; in the assay with SK-MEL-5 melanoma, 2.94 µM; in the assay on UACC-257 melanoma, 8 µM; with UACC-62 melanoma, 3.15 µM. Besides, the TGI with SK-MEL-2 melanoma was 3.2 µM; in the assay with HL-60(TB) leukemia it was 23.5 µM; in the assay with SNB-19 CNS, 1.99 µM; in the assay with TK-10 renal, 21.9 µM; in the assay on MOLT-4 leukemia, greater than 40.6 µM; in the assay with IGROV1 ovarian, 7.38 µM. The molecule further gave a concentration for total growth inhibition (TGI) in the assay on KM12 colon of 2.4 µM.

For `COc1ccc(/C=N/N=C(\N)NO)c(Cl)c1O`, the TGI in the assay on HCT-15 colon was greater than 100 µM; in the assay on SF-539 CNS it was 46.5 µM; with SK-MEL-5 melanoma, 40.6 µM; with UACC-257 melanoma, greater than 100 µM; in the assay on UACC-62 melanoma it was greater than 100 µM; in the assay on SK-MEL-2 melanoma, 70.6 µM. Besides, the TGI with SNB-19 CNS, in the assay on MOLT-4 leukemia, with IGROV1 ovarian and in the assay with KM12 colon was greater than 100 µM each time.

Turning to `Cc1cccc(NC(=S)Nc2ccc([N+](=O)[O-])cc2)n1`, the TGI in the assay on HCT-15 colon, in the assay with M14 melanoma, in the assay with SF-539 CNS, in the assay with SK-MEL-5 melanoma, in the assay with T-47D breast and in the assay with UACC-257 melanoma was greater than 100 µM each time. In addition, the TGI with UACC-62 melanoma, with SK-MEL-2 melanoma, with HL-60(TB) leukemia, with SNB-19 CNS, with TK-10 renal and in the assay on MCF7 breast was greater than 100 µM in each case. Besides, the TGI in the assay on MOLT-4 leukemia, in the assay on IGROV1 ovarian, with HS 578T breast and in the assay with KM12 colon was greater than 100 µM each time.

Take `O=C(CSc1nnc(Cc2ccccc2)o1)Nc1cccc(Cl)c1`: the concentration for total growth inhibition (TGI) in the assay with HCT-15 colon, in the assay on M14 melanoma, in the assay with SF-539 CNS, with SK-MEL-5 melanoma, with UACC-257 melanoma and in the assay on SK-MEL-2 melanoma was greater than 100 µM in each case. In addition, the total growth inhibition concentration (TGI) with HL-60(TB) leukemia, with SNB-19 CNS, in the assay on TK-10 renal, in the assay with MOLT-4 leukemia, in the assay on IGROV1 ovarian and in the assay with KM12 colon was greater than 100 µM each time.

`CC(=O)NC(CCCCN(Cc1ccccc1)C(=O)NCCCl)C(=O)NCc1ccccc1` (stereo not drawn): the TGI in the assay on HCT-15 colon, in the assay with M14 melanoma, in the assay on SF-539 CNS, with UACC-257 melanoma, in the assay on UACC-62 melanoma and with SK-MEL-2 melanoma was greater than 100 µM in each case. Besides, the total growth inhibition concentration (TGI) with HL-60(TB) leukemia, in the assay with SNB-19 CNS, in the assay with MOLT-4 leukemia, with IGROV1 ovarian and with KM12 colon was greater than 100 µM each time.

`O=c1cc(-c2ccccc2)oc2cc(OCC(O)COc3ccc4c(=O)cc(-c5ccccc5)oc4c3)ccc12`: the TGI in the assay with HCT-15 colon is greater than 100 µM; with M14 melanoma it was greater than 100 µM; in the assay on SF-539 CNS, 57 µM; with SK-MEL-5 melanoma, greater than 100 µM; with UACC-257 melanoma it was greater than 100 µM; with UACC-62 melanoma it was greater than 100 µM. The concentration for total growth inhibition (TGI) was 53.4 µM with SK-MEL-2 melanoma; greater than 100 µM in the assay on HL-60(TB) leukemia; 53.6 µM in the assay with SNB-19 CNS; greater than 100 µM in the assay with TK-10 renal; greater than 100 µM in the assay with MOLT-4 leukemia; greater than 100 µM with IGROV1 ovarian. In the assay on KM12 colon, this molecule returned a concentration for total growth inhibition (TGI) greater than 100 µM.
